In ChEMBL document CHEMBL1909046, “DrugMatrix in vitro pharmacology data”:

Key:
[1] = target: Beta-1 adrenergic receptor (Homo sapiens, UniProt P08588); assay: DRUGMATRIX: Adrenergic beta1 radioligand binding (ligand: [125I] Cyanopindolol); format: cell membranes, CHO-K1, Membrane; conditions: cho-k1; Not Active = under 50% inhibition at 10 µM
[2] = target: Beta-3 adrenergic receptor (Homo sapiens, UniProt P13945); assay: DRUGMATRIX: Adrenergic beta3 radioligand binding (ligand: [125I] Cyanopindolol); format: cell membranes, HEK293, Membrane; conditions: hek293; Not Active = under 50% inhibition at 10 µM
[3] = target: 5-hydroxytryptamine receptor 2B (Homo sapiens, UniProt P41595); format: cell membranes, CHO-K1, Membrane; note: in other assays of this panel Not Active means under 50% inhibition at 10 µM
[4] = target: T1, Alpha-1A adrenergic receptor (Rattus norvegicus, UniProt P43140); assay: DRUGMATRIX: Alpha-1A adrenergic receptor radioligand binding (ligand: prazosin); format: cell membranes, Wistar, Submaxillary gland, Membrane; conditions: Not Active = under 50% inhibition at 10 µM
T1 sequence (P43140 whole entry): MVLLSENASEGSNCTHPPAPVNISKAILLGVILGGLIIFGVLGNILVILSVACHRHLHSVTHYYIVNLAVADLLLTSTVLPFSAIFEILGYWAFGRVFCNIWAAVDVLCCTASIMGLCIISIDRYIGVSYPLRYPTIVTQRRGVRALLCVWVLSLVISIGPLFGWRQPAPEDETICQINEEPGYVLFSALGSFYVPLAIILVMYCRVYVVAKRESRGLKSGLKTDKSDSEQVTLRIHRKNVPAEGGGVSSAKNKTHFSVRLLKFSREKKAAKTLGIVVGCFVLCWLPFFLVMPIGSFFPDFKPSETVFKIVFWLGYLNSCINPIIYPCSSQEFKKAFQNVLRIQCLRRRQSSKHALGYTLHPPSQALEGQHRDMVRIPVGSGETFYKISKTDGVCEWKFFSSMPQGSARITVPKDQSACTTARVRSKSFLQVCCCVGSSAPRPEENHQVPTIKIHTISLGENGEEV

[5] = target: C-C chemokine receptor type 2 (Homo sapiens, UniProt P41597); format: cell membranes, CHO-K1, Membrane; conditions: cho-k1; note: in other assays of this panel Not Active means under 50% inhibition at 10 µM
[6] = target: T2, Alpha-1D adrenergic receptor (Homo sapiens, UniProt P25100); format: cell membranes, HEK293, Membrane; note: in other assays of this panel Not Active means under 50% inhibition at 10 µM
T2 sequence (P25100 whole entry): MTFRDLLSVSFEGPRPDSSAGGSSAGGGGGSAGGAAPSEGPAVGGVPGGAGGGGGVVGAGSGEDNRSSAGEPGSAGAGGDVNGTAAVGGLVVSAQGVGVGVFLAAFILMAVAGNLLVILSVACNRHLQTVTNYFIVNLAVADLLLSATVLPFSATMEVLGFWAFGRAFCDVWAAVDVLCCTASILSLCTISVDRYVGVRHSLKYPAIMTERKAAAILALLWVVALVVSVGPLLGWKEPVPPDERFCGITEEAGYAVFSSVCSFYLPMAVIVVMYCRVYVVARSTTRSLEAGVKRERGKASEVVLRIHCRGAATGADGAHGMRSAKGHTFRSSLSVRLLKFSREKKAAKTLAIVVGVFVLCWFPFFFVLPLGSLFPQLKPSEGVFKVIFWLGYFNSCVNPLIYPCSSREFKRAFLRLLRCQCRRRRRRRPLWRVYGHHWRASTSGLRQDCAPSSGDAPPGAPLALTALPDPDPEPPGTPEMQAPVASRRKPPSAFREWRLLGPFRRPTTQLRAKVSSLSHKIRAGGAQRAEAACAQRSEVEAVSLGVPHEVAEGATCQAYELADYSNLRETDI

[7] = DRUGMATRIX: Serotonin (5-Hydroxytryptamine) 5-HT3 radioligand binding (ligand: [3H] GR-65630); format: cell membranes, Membrane; conditions: hek293; Not Active = under 50% inhibition at 10 µM
[8] = target: T3, 5-hydroxytryptamine receptor 1A (Rattus norvegicus, UniProt P19327); format: cell membranes, CHO-K1, Membrane; note: in other assays of this panel Not Active means under 50% inhibition at 10 µM
T3 sequence (P19327 whole entry): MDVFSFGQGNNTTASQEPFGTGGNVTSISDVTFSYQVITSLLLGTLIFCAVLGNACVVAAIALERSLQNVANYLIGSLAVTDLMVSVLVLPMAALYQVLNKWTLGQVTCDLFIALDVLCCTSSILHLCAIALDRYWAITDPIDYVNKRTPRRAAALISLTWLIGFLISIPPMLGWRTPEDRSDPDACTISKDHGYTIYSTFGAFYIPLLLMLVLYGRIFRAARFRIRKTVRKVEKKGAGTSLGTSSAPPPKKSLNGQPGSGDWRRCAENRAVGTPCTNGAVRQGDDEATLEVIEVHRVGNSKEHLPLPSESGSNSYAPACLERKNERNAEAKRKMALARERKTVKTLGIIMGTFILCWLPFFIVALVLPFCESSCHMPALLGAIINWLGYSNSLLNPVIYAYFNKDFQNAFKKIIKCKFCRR

Melanocortin receptor 3 = Melanocortin receptor 3 (Homo sapiens, UniProt P41968); format: cell membranes, Membrane; conditions: hek293; note: in other assays of this panel Not Active means under 50% inhibition at 10 µM
[9] = target: Prostaglandin G/H synthase 1 (Homo sapiens, UniProt P23219); assay: biochemical; format: tissue-based, Platelet; conditions: platelet
Thromboxane-A synthase = target: T4, Thromboxane-A synthase (Homo sapiens, UniProt P24557); assay: biochemical; format: tissue-based, Platelet; conditions: platelet
T4 sequence (P24557 whole entry): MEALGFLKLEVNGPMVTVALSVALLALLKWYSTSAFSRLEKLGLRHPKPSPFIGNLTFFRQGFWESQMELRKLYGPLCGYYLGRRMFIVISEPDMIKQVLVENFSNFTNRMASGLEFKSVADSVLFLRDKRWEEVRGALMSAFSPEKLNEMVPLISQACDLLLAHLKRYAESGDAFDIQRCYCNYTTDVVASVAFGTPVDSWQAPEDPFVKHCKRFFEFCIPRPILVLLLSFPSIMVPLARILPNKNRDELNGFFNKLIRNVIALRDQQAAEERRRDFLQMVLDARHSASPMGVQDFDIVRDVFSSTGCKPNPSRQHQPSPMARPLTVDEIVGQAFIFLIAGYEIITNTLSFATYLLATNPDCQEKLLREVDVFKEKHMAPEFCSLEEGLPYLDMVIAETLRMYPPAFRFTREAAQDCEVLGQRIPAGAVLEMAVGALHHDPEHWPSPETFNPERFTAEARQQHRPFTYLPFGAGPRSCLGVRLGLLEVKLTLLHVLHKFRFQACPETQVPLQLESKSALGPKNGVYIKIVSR

Cytochrome P450 2E1 = Cytochrome P450 2E1 (Homo sapiens, UniProt P05181); conditions: bti-tn-5b1-4; note: in other assays of this panel Not Active means under 50% inhibition at 10 µM
D(3) dopamine receptor = D(3) dopamine receptor (Homo sapiens, UniProt P35462); assay: DRUGMATRIX: Dopamine D3 radioligand binding (ligand: [3H] Spiperone); format: cell membranes, CHO, Membrane
Sequence of D(3) dopamine receptor (P35462 whole entry): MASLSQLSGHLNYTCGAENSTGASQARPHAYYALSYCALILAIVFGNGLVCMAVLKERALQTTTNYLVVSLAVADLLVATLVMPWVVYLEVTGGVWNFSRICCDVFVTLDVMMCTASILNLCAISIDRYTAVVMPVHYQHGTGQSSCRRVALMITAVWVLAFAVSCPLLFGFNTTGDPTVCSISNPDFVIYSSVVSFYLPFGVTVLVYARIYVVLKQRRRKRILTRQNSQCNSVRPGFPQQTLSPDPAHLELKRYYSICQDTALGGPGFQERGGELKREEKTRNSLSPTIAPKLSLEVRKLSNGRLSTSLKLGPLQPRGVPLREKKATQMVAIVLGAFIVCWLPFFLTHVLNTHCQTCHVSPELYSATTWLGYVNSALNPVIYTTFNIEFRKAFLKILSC

Sequence of Beta-3 adrenergic receptor (P13945 whole entry): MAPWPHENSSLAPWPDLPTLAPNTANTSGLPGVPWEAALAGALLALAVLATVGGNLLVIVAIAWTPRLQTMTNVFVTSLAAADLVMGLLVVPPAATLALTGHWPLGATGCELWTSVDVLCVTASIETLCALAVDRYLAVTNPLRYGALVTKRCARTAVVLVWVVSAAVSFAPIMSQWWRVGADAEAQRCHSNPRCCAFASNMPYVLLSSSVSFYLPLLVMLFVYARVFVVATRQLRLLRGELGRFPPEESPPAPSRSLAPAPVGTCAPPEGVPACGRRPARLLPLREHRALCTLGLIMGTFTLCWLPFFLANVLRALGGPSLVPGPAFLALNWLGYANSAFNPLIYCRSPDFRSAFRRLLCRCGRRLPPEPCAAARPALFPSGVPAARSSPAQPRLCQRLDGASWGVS
Sequence of Melanocortin receptor 3 (P41968 whole entry): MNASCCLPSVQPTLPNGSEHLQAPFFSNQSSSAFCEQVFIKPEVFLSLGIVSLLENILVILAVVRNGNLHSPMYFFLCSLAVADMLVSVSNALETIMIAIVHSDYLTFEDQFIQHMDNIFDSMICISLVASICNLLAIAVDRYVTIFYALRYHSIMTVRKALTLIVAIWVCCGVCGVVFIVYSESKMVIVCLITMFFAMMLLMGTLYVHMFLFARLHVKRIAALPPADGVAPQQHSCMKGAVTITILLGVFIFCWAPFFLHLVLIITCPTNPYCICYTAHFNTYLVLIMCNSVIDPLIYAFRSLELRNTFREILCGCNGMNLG
Sequence of 5-hydroxytryptamine receptor 2B (P41595 whole entry): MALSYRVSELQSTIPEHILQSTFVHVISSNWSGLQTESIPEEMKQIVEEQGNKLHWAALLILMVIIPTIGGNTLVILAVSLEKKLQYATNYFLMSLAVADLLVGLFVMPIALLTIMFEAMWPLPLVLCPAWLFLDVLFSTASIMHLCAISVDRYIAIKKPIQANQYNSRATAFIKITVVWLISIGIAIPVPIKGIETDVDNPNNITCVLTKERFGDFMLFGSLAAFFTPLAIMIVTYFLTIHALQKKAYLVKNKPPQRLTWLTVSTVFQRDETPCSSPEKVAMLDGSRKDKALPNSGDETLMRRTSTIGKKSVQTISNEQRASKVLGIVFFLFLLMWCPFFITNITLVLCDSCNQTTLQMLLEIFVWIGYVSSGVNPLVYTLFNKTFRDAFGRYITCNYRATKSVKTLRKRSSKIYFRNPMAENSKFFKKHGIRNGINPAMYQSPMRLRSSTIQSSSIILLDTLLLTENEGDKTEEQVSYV
Sequence of Prostaglandin G/H synthase 1 (P23219 whole entry): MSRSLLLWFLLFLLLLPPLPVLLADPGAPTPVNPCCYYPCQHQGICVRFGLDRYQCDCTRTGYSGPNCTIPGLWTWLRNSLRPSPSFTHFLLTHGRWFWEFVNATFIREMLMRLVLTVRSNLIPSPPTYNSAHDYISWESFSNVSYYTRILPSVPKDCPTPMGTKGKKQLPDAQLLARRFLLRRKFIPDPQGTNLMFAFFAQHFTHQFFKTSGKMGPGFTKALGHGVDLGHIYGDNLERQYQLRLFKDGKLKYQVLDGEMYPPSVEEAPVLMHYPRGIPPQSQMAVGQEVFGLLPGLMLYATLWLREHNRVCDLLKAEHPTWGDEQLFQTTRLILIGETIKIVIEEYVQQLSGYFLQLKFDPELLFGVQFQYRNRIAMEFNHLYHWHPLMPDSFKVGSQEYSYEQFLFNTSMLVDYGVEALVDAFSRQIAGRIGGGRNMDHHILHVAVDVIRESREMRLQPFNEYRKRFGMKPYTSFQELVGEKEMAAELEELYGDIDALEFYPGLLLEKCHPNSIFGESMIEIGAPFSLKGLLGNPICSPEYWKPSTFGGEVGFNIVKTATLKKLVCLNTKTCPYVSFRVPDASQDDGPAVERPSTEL
Sequence of Cytochrome P450 2E1 (P05181 whole entry): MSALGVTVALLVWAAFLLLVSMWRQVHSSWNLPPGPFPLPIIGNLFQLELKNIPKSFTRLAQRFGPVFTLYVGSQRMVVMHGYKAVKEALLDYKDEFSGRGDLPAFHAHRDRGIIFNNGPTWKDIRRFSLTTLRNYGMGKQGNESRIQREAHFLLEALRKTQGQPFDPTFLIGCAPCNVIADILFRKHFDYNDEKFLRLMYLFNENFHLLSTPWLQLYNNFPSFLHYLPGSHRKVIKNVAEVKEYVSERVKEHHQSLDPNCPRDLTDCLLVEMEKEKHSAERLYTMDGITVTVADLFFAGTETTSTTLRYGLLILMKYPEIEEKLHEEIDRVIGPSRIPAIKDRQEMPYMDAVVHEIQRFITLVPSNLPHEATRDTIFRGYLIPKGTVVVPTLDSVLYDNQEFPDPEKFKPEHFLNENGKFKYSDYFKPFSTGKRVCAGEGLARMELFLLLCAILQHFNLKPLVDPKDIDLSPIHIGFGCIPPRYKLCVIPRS
Sequence of C-C chemokine receptor type 2 (P41597 whole entry): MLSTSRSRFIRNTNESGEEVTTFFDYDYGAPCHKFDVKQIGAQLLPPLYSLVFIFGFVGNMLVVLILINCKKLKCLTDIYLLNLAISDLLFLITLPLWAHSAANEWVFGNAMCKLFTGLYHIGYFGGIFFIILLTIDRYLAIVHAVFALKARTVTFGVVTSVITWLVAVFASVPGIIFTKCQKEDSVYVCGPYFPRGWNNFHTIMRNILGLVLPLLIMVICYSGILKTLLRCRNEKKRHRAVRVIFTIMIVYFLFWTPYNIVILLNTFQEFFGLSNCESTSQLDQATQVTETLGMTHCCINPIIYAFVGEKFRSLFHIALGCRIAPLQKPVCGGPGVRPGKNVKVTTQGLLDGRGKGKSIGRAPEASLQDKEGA
Sequence of Beta-1 adrenergic receptor (P08588 whole entry): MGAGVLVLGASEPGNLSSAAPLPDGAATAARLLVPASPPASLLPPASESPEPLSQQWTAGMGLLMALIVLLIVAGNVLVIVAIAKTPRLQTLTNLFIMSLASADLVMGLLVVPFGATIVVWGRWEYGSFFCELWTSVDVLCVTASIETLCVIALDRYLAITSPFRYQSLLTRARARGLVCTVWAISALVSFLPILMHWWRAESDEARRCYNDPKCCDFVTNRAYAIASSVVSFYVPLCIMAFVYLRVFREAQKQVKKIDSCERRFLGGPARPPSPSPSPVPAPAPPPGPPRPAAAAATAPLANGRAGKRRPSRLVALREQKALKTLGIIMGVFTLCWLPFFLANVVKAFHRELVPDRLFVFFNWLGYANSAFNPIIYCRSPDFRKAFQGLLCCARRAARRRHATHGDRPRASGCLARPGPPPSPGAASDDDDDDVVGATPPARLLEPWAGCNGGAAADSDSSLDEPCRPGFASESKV

Row | SMILES | IC50 [1] | IC50 [2] | IC50 [5] | IC50 [7] | Ki [7] | IC50 (Melanocortin receptor 3) | IC50 [9] | IC50 (Thromboxane-A synthase) | IC50 (Cytochrome P450 2E1) | Ki (Cytochrome P450 2E1) | IC50 ([3]; cho-k1) | IC50 [4] | IC50 ([6]; hek293) | IC50 ([8]; cho-k1) | IC50 (D(3) dopamine receptor; cho) | further results
1 | CNCCC=C1c2ccccc2CCc2ccccc21 [NORTRIPTYLINE] | Not Active | Not Active | Not Active | Not Active | Not Active | Not Active | Not Active | Not Active | Not Active | Not Active |  |  |  |  |  | IC50 ([3]; read-out: IC50): 136 nM; Ki ([3]; read-out: Ki): 86 nM; IC50 ([4]; read-out: IC50): 305 nM; Ki ([4]; read-out: Ki): 123 nM; IC50 ([6]; read-out: IC50): 273 nM; Ki ([6]; read-out: Ki): 134 nM; IC50 ([8]; read-out: IC50): 1870 nM; Ki ([8]; read-out: Ki): 1070 nM; IC50 (D(3) dopamine receptor; read-out: IC50): 179 nM; Ki (D(3) dopamine receptor; read-out: Ki): 61 nM
2 | CC1COc2c(N3CCN(C)CC3)c(F)cc3c(=O)c(C(=O)O)cn1c23 (stereo not given) [OFLOXACIN] | Not Active | Not Active | Not Active | Not Active | Not Active | Not Active | Not Active | Not Active | Not Active | Not Active | Not Active | Not Active | Not Active | Not Active | Not Active | 
3 | Oc1cccc2cccnc12 [OXYQUINOLINE] | Not Active | Not Active | Not Active | Not Active | Not Active | Not Active | Not Active | Not Active | Not Active | Not Active | Not Active | Not Active | Not Active | Not Active | Not Active | 
4 | CN(C)[C@@H]1C(O)=C(C(N)=O)C(=O)[C@@]2(O)C(O)=C3C(=O)c4c(O)cccc4[C@@](C)(O)[C@H]3[C@H](O)[C@@H]12 [OXYTETRACYCLINE] | Not Active | Not Active | Not Active | Not Active | Not Active | Not Active | Not Active | Not Active | Not Active | Not Active | Not Active | Not Active | Not Active | Not Active | Not Active | 
5 | Fc1ccc([C@@H]2CCNC[C@H]2COc2ccc3c(c2)OCO3)cc1 [PAROXETINE] | Not Active | Not Active | Not Active | Not Active | Not Active | Not Active | Not Active | Not Active | Not Active | Not Active | Not Active | Not Active | Not Active | Not Active | Not Active | 
6 | CC(C)(S)[C@@H](N)C(=O)O [PENICILLAMINE] | Not Active | Not Active | Not Active | Not Active | Not Active | Not Active | Not Active | Not Active | Not Active | Not Active | Not Active | Not Active | Not Active | Not Active | Not Active | 
7 | CC(=O)CCCCn1c(=O)c2c(ncn2C)n(C)c1=O [PENTOXIFYLLINE] | Not Active | Not Active | Not Active | Not Active | Not Active | Not Active | Not Active | Not Active | Not Active | Not Active | Not Active | Not Active | Not Active | Not Active | Not Active | 
8 | O=C1NC(=O)C(c2ccccc2)(c2ccccc2)N1 [PHENYTOIN] | Not Active | Not Active | Not Active | Not Active | Not Active | Not Active | Not Active | Not Active | Not Active | Not Active | Not Active | Not Active | Not Active | Not Active | Not Active | 
9 | CNC(=O)Oc1ccc2c(c1)[C@]1(C)CCN(C)[C@@H]1N2C [PHYSOSTIGMINE] | Not Active | Not Active | Not Active | Not Active | Not Active | Not Active | Not Active | Not Active | Not Active | Not Active | Not Active | Not Active | Not Active | Not Active | Not Active | 
